Results: patent publication US5459148A, “Biphenyl derivatives and their use for the treatment of hypertension and cardiac disease” (Sankyo Company, Limited, priority 1992, dated 1995)

Each compound was assayed against T1, AII receptor (Rattus norvegicus, UniProt P25095) (assay: Inhibition of pressor response to intravenous angiotensin II (AII receptor blocking activity)). Details: 2 min, read-out: ID50 (dose required to inhibit the pressor response to intravenous angiotensin II by fifty percent).
T1 construct: from tissue; host or cells: whole anesthetized male Wister-Imamichi rat (in vivo, blood pressure in the femoral artery)
T1 sequence (P25095 1-359): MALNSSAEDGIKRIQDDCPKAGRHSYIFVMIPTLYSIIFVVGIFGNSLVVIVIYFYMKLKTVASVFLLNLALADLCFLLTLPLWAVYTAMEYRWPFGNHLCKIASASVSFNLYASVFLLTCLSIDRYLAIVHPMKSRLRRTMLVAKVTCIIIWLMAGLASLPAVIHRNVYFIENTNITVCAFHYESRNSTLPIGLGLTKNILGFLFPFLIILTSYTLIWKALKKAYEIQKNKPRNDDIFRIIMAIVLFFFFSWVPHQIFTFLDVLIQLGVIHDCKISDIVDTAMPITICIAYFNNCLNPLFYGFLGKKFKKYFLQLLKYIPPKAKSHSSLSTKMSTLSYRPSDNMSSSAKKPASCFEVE
Format: in vivo, rat (male Wister-Imamichi)
Method: Evaluation of AII receptor blocking activity by Inhibition of pressor response to angiotensin II
The biological activity of each compound was assessed by determining the dose required to inhibit the pressor response to intravenous angiotensin II by fifty percent (ID50) in rats. Male Wister-Imamichi rats, each weighing 300 to 400 g, were anesthesized by intraperitoneal injection of 100 mg/Kg of sodium thiobutabarbital [Inactin (trade name)] and two cannulae were inserted: one into the femoral artery for measuring blood pressure and the other into the femoral vein for injecting drugs. […] The percent inhibitions of the pressor response to angiotensin II by progressive increase of the test compound was used to calculate the value of ID50. Angiotensin II was used in this test dissolved in 0.5% bovine serum albumin (BSA) and the test compounds were dissolved in 100% dimethyl sulfoxide (DMSO).

| Compound | ED50 [mg/kg] |
| --- | --- |
| CCCc1nc(C(C)(C)O)c(C(=O)O)n1Cc1ccc(-c2ccccc2C(=O)C(=O)O)cc1 [Example 1, 4-(1-Hydroxy-1-methylethyl)-1-[(2'-oxalobiphenyl-4-yl)methyl]-2-propylimidazole-5-carboxylic acid] | 0.0065 |
| CCCCc1nc(C(C)(C)O)c(C(=O)O)n1Cc1ccc(-c2ccccc2C(=O)C(=O)O)cc1 [Example 2, 2-Butyl-4-(1-hydroxy-1-methylethyl)-1-[(2'-oxalobiphenyl-4-yl)methyl]imidazole-5-carboxylic acid] | 0.026 |
| CCCc1nc(CO)c(C(=O)O)n1Cc1ccc(-c2ccccc2C(=O)C(=O)O)cc1 [Example 6, 4-Hydroxymethyl-1-[(2'-oxalobiphenyl-4-yl)methyl]-2-propylimidazole-5-carboxylic acid] | 0.02 |
| CCCc1nc(C(C)(C)O)c(-c2nnn[nH]2)n1Cc1ccc(-c2ccccc2C(=O)C(=O)O)cc1 [Example 7, {4'-[4-(1-Hydroxy-1-methylethyl)-2-propyl-5-(tetrazol-5-yl)imidazol-1-ylmethyl]biphenyl-2-yl}glyoxylic acid] | 0.021 |
| C=C(C)c1nc(CCC)n(Cc2ccc(-c3ccccc3C(=O)C(=O)O)cc2)c1C(=O)O [Example 8, 4-Isopropenyl-1-[(2'-oxalobiphenyl-4-yl)methyl]-2-propylimidazole-5-carboxylic acid] | 0.06 |
| CCCc1nc(C(C)C)c(C(=O)O)n1Cc1ccc(-c2ccccc2C(=O)C(=O)O)cc1 [Example 9, 4-Isopropyl-1-[(2'-oxalobiphenyl-4-yl)methyl]-2-propylimidazole-5-carboxylic acid] | 0.053 |
| CCCc1nc(C(O)C(C)C)c(C(N)=O)n1Cc1ccc(-c2ccccc2C(=O)C(=O)O)cc1 (stereo not shown) [Example 10, 4-(1-Hydroxy-2-methylpropyl)-1-[(2'-oxalobiphenyl-4-yl)-methyl]-2-propylimidazole-5-carboxamide] | 0.022 |

Now from value to compound:

| ED50 [mg/kg] | Compound |
| --- | --- |
| 0.017 | CCCc1nc(C(O)C(C)(C)C)c(C(N)=O)n1Cc1ccc(-c2ccccc2C(=O)C(=O)O)cc1 (stereo not shown) [Example 11, 4-(1-Hydroxy-2,2-dimethylpropyl)-1-[(2'-oxalobiphenyl-4-yl)methyl]-2-propylimidazole-5-carboxamide] |
| 0.042 | CCCCc1nc(C(O)C(C)C)c(C(N)=O)n1Cc1ccc(-c2ccccc2C(=O)C(=O)O)cc1 (stereo not shown) [Example 12, 2-Butyl-4-(1-hydroxy-2-methylpropyl)-1-[(2'-oxalobiphenyl-4-yl)methyl]imidazole-5-carboxamide] |
| 0.048 | CCCCc1nc(C(O)C(C)(C)C)c(C(N)=O)n1Cc1ccc(-c2ccccc2C(=O)C(=O)O)cc1 (stereo not shown) [Example 13, 2-Butyl-4-(1-hydroxy-2,2-dimethylpropyl)-1-[(2'-oxalobiphenyl-4-yl)methyl]imidazole-5-carboxamide] |
| 0.0096 | CCOCc1nc(C(C)(C)O)c(C(=O)O)n1Cc1ccc(-c2ccccc2C(=O)C(=O)O)cc1 [Example 14, 2-Ethoxymethyl-4-(1-hydroxy-1-methylethyl)-1-[(2'-oxalobiphenyl-4-yl)methyl]imidazole-5-carboxylic acid] |
| 0.024 | CCc1nc2c(C)cc(C)nc2n1Cc1ccc(-c2ccccc2C(=O)C(=O)O)cc1 [Example 16, 2-Ethyl-5,7-dimethyl-3-(2'-oxalobiphenyl-4-yl)methyl-3H-imidazo[4,5-b]pyridine] |
| 0.026 | CCCc1nc(C(C)(C)O)c(C(=O)O)n1Cc1ccc(-c2ccccc2C(=O)c2nnn[nH]2)cc1 [Example 20, 4-(1-Hydroxy-1-methylethyl)-1-{[2'-(tetrazol-5-ylcarbonyl)biphenyl-4-yl]methyl}-2-propylimidazole-5-carboxylic acid] |
